Laboratory results reported in ChEMBL document CHEMBL3784918, “Novel 2,4-diaminopyrimidines bearing tetrahydronaphthalenyl moiety against anaplastic lymphoma kinase (ALK): Synthesis, in vitro, ex vivo, and in vivo efficacy studies” (Bioorg Med Chem Lett, 2016).
Calls of active or inactive are those of the source. The rule behind the calls is not given here.

Columns and labels:
[1] = biological target: Tyrosine-protein kinase Mer (Homo sapiens) (UniProt Q12866); test: Inhibition of human MER at 1 uM after 30 mins by fluorescence assay in presence of ATP
[2] = tested on: BaF3; test: Inhibition of ALK L1196M mutant in mouse BA/F3 cells assessed as inhibition of cell proliferation after 72 hrs by WST1 assay; assay type: cell-based
[3] = biological target: Testis-specific serine/threonine-protein kinase 1 (Homo sapiens) (UniProt Q9BXA7); test: Inhibition of human TSSK1 at 1 uM after 30 mins by fluorescence assay in presence of ATP
Chain of Testis-specific serine/threonine-protein kinase 1 (Homo sapiens) (Q9BXA7 whole entry): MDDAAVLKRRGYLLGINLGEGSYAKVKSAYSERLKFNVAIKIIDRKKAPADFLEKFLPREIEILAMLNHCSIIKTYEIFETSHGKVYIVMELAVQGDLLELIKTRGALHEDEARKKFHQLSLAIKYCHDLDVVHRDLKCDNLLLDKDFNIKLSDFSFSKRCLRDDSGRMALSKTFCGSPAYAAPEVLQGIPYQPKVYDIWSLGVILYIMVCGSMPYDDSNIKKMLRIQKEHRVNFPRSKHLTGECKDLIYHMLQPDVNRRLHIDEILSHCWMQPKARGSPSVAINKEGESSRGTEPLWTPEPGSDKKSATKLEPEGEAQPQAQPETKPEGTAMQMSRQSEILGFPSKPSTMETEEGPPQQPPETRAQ

[4] = biological target: Ephrin type-B receptor 1 (Homo sapiens) (UniProt P54762); test: Inhibition of human EPHB1 at 1 uM after 30 mins by fluorescence assay in presence of ATP
[5] = biological target: Serine/threonine-protein kinase 10 (Homo sapiens) (UniProt O94804); test: Inhibition of human LOK at 1 uM after 30 mins by fluorescence assay in presence of ATP
[6] = biological target: Insulin-like growth factor 1 receptor (Homo sapiens) (UniProt P08069); test: Inhibition of human IGF1R at 1 uM after 30 mins by fluorescence assay in presence of ATP
[7] = biological target: CYP1A2 (Homo sapiens, UniProt P05177); test: Inhibition of CYP1A2 (unknown origin) at 10 uM; assay type: ADME
[8] = biological target: ALK tyrosine kinase receptor (Homo sapiens, UniProt Q9UM73, L1196M); test: Inhibition of ALK L1196M mutant (unknown origin) after 30 mins by HTRF assay
[9] = AUCinfinity in cannulated Sprague Dawley rat at 10 mg/kg administered through oral gavage by LC/MS/MS analysis; assay type: ADME, organism-based; parameters: dose 10 mg/kg, time infinity, route oral; details: in vivo
[10] = biological target: CYP2C9 (Homo sapiens, UniProt P11712); test: Inhibition of CYP2C9 (unknown origin) at 10 uM; assay type: ADME
[11] = tested on: NCI-H3122; test: Antitumor activity against human NCI-H3122 cells xenografted in SCID mouse assessed as tumor growth inhibition at 25 mg/kg, po administered qd for 14 days; assay type: functional, organism-based
[12] = biological target: High affinity nerve growth factor receptor (Homo sapiens) (UniProt P04629); test: Inhibition of human TRKA at 1 uM after 30 mins by fluorescence assay in presence of ATP
[13] = biological target: Tyrosine-protein kinase receptor UFO (Homo sapiens) (UniProt P30530); test: Inhibition of human AXL at 1 uM after 30 mins by fluorescence assay in presence of ATP
[14] = biological target: EML4-ALK (Homo sapiens) (UniProt Q9UM73+Q9HC35); test: Inhibition of EML4-ALK in human NCI-H3122 cells assessed as inhibition of cell proliferation after 72 hrs by SRB assay; assay type: cell-based
[15] = biological target: NUAK family SNF1-like kinase 1 (Homo sapiens) (UniProt O60285); test: Inhibition of human ARK5 at 1 uM after 30 mins by fluorescence assay in presence of ATP
Chain of NUAK family SNF1-like kinase 1 (Homo sapiens) (O60285 whole entry): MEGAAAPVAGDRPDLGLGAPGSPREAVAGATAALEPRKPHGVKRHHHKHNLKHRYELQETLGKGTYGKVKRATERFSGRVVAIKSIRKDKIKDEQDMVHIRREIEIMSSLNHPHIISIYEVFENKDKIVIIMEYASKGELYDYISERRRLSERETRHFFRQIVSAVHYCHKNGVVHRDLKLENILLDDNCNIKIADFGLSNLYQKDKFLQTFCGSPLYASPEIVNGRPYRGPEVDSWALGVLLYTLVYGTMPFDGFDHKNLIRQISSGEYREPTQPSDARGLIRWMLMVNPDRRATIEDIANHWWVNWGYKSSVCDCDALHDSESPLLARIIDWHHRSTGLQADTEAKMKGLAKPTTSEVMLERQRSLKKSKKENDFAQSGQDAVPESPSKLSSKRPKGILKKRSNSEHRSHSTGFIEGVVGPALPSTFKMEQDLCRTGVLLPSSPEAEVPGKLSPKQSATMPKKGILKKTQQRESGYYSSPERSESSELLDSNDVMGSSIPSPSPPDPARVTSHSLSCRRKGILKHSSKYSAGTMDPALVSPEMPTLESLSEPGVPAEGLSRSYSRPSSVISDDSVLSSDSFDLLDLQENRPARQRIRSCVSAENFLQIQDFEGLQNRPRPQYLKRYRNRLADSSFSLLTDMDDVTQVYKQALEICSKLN

[16] = biological target: CYP3A4 (Homo sapiens, UniProt P08684); test: Inhibition of CYP3A4 (unknown origin) at 10 uM; assay type: ADME
[17] = biological target: Epidermal growth factor receptor (Homo sapiens) (UniProt P00533); test: Inhibition of human EGFR at 1 uM after 30 mins by fluorescence assay in presence of ATP
[18] = biological target: Protein-tyrosine kinase 2-beta (Homo sapiens) (UniProt Q14289); test: Inhibition of human PYK2 at 1 uM after 30 mins by fluorescence assay in presence of ATP
[19] = Tmax in cannulated Sprague Dawley rat at 10 mg/kg administered through oral gavage by LC/MS/MS analysis; assay type: ADME, organism-based; details: in vivo
[20] = biological target: Insulin receptor (Homo sapiens) (UniProt P06213); test: Inhibition of human IR at 1 uM after 30 mins by fluorescence assay in presence of ATP
[21] = biological target: Serine/threonine-protein kinase Chk2 (Homo sapiens) (UniProt O96017); test: Inhibition of human CHK2 at 1 uM after 30 mins by fluorescence assay in presence of ATP
[22] = biological target: Serine/threonine-protein kinase TAO1 (Homo sapiens) (UniProt Q7L7X3); test: Inhibition of human TAO1 at 1 uM after 30 mins by fluorescence assay in presence of ATP
Chain of Serine/threonine-protein kinase TAO1 (Homo sapiens) (Q7L7X3 whole entry): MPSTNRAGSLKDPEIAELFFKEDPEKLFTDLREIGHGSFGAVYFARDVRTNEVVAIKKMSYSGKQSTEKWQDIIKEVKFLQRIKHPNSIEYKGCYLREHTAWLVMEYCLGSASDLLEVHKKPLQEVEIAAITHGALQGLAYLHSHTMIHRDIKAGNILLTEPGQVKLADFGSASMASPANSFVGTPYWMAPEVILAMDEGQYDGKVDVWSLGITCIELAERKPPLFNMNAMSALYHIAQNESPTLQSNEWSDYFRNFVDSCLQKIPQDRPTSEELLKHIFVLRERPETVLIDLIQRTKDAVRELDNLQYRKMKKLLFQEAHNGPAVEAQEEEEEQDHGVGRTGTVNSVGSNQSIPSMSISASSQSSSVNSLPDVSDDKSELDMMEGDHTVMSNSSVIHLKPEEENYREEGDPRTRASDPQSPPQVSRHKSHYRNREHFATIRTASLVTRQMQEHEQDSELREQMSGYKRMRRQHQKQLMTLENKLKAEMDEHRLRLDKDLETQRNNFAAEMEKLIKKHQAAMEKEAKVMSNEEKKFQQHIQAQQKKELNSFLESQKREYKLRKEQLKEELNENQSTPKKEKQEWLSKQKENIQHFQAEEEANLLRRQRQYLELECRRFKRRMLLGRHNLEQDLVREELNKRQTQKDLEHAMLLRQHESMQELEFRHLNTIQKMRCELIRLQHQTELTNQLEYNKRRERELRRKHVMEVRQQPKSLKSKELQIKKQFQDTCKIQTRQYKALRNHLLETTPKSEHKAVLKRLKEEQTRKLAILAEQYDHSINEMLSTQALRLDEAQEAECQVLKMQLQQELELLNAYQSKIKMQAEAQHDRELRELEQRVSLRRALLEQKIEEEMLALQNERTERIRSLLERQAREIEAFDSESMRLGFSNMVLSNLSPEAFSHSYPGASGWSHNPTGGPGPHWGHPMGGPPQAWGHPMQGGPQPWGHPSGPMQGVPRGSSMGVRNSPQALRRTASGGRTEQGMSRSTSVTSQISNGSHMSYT

[23] = tested on: Mus musculus; test: Toxicity in SCID mouse xenografted with human H3122 cells assessed as change in body weight at 25 mg/kg, po administered qd for 14 days measured during compound dosing; assay type: organism-based; details: in vivo, 336 h
[24] = biological target: Fibroblast growth factor receptor 1 (Homo sapiens) (UniProt P11362); test: Inhibition of human FGFR1 at 1 uM after 30 mins by fluorescence assay in presence of ATP
[25] = biological target: Tyrosine-protein kinase Yes (Homo sapiens) (UniProt P07947); test: Inhibition of human YES at 1 uM after 30 mins by fluorescence assay in presence of ATP
[26] = biological target: Aurora kinase B (Homo sapiens) (UniProt Q96GD4); test: Inhibition of human Aurora B at 1 uM after 30 mins by fluorescence assay in presence of ATP
[27] = tested on: NCI-H3122; test: Antitumor activity against human NCI-H3122 cells xenografted in SCID mouse assessed as tumor growth inhibition at 50 mg/kg, po administered qd for 14 days; assay type: functional, organism-based
[28] = biological target: Aurora kinase A (Homo sapiens) (UniProt O14965); test: Inhibition of human Aurora A at 1 uM after 30 mins by fluorescence assay in presence of ATP
Chain of Aurora kinase A (Homo sapiens) (O14965 whole entry): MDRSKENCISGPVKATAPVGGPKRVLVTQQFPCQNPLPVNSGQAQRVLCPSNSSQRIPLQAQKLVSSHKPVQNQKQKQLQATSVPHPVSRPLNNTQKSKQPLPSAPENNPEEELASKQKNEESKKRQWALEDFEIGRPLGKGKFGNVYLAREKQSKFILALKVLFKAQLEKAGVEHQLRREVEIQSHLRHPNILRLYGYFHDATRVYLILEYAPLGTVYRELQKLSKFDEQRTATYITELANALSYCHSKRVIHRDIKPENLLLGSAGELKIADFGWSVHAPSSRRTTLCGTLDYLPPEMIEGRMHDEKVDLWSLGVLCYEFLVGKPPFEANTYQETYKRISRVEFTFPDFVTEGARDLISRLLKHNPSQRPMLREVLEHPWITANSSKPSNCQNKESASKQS

[29] = Metabolic stability of the compound in mouse liver microsomes assessed as compound remaining at 1 uM after 30 mins by LC/MS/MS analysis in the presence of NADPH; assay type: ADME; details: read-out: Stability
[30] = biological target: Ribosomal protein S6 kinase alpha-1 (Homo sapiens) (UniProt Q15418); test: Inhibition of human RSK1 at 1 uM after 30 mins by fluorescence assay in presence of ATP
[31] = biological target: CYP2C19 (Homo sapiens, UniProt P33261); test: Inhibition of CYP2C19 (unknown origin) at 10 uM; assay type: ADME
[32] = Half life in cannulated Sprague Dawley rat at 10 mg/kg administered through oral gavage by LC/MS/MS analysis; assay type: ADME, organism-based; details: in vivo
[33] = biological target: Activated CDC42 kinase 1 (Homo sapiens) (UniProt Q07912); test: Inhibition of human ACK1 at 1 uM after 30 mins by fluorescence assay in presence of ATP
Chain of Activated CDC42 kinase 1 (Homo sapiens) (Q07912 whole entry, looked up): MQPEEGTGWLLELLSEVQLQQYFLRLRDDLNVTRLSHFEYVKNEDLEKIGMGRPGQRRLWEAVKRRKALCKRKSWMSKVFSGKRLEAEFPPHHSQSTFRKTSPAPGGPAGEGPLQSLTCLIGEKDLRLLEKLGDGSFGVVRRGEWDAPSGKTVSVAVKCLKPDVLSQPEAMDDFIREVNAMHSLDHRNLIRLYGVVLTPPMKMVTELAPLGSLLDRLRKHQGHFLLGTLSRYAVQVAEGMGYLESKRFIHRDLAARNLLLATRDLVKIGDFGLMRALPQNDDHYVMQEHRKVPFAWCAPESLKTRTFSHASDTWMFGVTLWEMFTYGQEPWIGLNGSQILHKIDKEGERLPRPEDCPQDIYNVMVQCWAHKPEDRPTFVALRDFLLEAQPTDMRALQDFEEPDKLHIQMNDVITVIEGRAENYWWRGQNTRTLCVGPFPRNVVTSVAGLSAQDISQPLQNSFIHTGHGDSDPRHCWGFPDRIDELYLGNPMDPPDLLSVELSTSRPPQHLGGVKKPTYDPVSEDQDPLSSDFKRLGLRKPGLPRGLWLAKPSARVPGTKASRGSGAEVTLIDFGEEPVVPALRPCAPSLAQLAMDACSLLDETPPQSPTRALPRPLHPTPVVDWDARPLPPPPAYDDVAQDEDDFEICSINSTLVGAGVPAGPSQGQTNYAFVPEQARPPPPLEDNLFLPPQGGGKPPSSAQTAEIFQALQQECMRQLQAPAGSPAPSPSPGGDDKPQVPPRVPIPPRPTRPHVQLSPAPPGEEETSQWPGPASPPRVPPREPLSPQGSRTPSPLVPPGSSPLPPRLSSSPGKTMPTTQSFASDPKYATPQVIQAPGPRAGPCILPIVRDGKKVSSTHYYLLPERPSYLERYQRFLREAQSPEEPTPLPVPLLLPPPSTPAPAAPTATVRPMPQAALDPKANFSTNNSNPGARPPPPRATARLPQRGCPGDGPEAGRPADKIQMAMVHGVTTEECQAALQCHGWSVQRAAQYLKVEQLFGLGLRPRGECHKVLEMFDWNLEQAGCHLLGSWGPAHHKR

[34] = biological target: Ephrin type-A receptor 1 (Homo sapiens) (UniProt P21709); test: Inhibition of human EPHA1 at 1 uM after 30 mins by fluorescence assay in presence of ATP
[35] = biological target: Receptor-type tyrosine-protein kinase FLT3 (Homo sapiens) (UniProt P36888); test: Inhibition of human FLT3 at 1 uM after 30 mins by fluorescence assay in presence of ATP
[36] = tested on: Mus musculus; test: Toxicity in SCID mouse xenografted with human H3122 cells assessed as change in body weight at 50 mg/kg, po administered qd for 14 days measured during compound dosing; assay type: organism-based; details: in vivo, 336 h
[37] = biological target: T1, ALK tyrosine kinase receptor (Homo sapiens, UniProt Q9UM73); test: Inhibition of human ALK at 1 uM after 30 mins by fluorescence assay in presence of ATP
[38] = biological target: CYP2D6 (Homo sapiens, UniProt P10635); test: Inhibition of CYP2D6 (unknown origin) at 10 uM; assay type: ADME
[39] = biological target: Focal adhesion kinase 1 (Homo sapiens) (UniProt Q05397); test: Inhibition of human FAK at 1 uM after 30 mins by fluorescence assay in presence of ATP
[40] = biological target: Rho-associated protein kinase 2 (Homo sapiens) (UniProt O75116); test: Inhibition of human ROCK2 at 1 uM after 30 mins by fluorescence assay in presence of ATP
[41] = biological target: T1, ALK tyrosine kinase receptor; test: Inhibition of wild type ALK (unknown origin) after 30 mins by HTRF assay
Target sequence in this assay (Q9UM73 whole entry): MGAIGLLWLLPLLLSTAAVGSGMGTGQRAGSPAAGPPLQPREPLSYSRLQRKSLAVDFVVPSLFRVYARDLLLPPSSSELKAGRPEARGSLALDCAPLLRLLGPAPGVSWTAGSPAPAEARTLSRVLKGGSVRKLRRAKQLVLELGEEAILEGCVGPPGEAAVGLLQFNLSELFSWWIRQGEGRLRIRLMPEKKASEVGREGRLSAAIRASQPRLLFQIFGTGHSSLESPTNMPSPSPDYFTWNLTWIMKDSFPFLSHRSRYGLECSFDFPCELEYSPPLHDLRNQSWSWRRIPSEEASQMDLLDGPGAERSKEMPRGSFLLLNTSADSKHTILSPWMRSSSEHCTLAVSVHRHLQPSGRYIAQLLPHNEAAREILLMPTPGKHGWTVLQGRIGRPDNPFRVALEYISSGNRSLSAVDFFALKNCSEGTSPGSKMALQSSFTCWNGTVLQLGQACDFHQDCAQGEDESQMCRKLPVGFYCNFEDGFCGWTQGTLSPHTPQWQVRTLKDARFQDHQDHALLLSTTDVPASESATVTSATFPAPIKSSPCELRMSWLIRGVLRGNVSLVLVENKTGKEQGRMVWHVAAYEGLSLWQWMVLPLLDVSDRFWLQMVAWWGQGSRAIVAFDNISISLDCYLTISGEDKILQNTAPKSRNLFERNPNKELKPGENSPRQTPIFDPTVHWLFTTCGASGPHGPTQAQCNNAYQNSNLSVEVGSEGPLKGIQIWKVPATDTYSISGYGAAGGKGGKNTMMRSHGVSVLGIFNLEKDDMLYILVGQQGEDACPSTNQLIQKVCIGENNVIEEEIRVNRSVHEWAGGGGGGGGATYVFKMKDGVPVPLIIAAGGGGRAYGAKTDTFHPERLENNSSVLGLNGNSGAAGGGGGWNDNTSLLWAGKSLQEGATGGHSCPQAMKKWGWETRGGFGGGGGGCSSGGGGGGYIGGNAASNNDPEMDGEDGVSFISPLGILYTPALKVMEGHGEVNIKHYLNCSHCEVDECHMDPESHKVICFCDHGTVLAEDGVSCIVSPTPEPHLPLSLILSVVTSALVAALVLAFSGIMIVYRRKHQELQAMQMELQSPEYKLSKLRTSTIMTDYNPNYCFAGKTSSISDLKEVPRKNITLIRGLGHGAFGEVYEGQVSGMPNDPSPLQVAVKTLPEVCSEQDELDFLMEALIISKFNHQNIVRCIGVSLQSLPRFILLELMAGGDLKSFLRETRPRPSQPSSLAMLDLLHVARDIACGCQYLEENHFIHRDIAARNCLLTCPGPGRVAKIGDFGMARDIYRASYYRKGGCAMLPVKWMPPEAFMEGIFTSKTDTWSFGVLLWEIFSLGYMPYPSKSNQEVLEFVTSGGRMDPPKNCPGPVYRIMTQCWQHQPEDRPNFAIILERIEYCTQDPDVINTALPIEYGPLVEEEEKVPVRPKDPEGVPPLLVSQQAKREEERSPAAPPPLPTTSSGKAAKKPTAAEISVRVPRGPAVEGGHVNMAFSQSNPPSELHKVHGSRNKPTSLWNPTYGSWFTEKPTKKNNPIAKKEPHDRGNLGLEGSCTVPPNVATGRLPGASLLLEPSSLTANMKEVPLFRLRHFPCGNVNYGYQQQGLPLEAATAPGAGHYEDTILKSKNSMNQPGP

[42] = Metabolic stability of the compound in human liver microsomes assessed as compound remaining at 1 uM after 30 mins by LC/MS/MS analysis in the presence of NADPH; assay type: ADME; details: read-out: Stability
[43] = Cmax in cannulated Sprague Dawley rat at 10 mg/kg administered through oral gavage by LC/MS/MS analysis; assay type: ADME, organism-based; parameters: dose 10 mg/kg, route oral; details: in vivo
[44] = biological target: Serine/threonine-protein kinase N2 (Homo sapiens) (UniProt Q16513); test: Inhibition of human PRK2 at 1 uM after 30 mins by fluorescence assay in presence of ATP
[45] = AUCt in cannulated Sprague Dawley rat at 10 mg/kg administered through oral gavage by LC/MS/MS analysis; assay type: ADME, organism-based; details: in vivo
[46] = biological target: Proto-oncogene tyrosine-protein kinase ROS (Homo sapiens) (UniProt P08922); test: Inhibition of human ROS at 1 uM after 30 mins by fluorescence assay in presence of ATP

COc1cc2c(cc1Nc1ncc(Cl)c(Nc3ccccc3S(=O)(=O)C(C)C)n1)CCC(N)C2(C)C (stereo unspecified)
inhibition [1]: 100%
CC50 [2]: 62 nM
inhibition [3]: 96%
inhibition [4]: 92%
inhibition [5]: 96%
inhibition [6]: 100%
inhibition at 10 µM [7]: 9.5%
IC50 [8]: 1.5 nM
AUC(0-inf) [9]: 10900 ng·h/mL
inhibition at 10 µM [10]: 38%
TGI [11]: Active
inhibition [12]: 95%
inhibition [13]: 97%
CC50 [14]: 16 nM
inhibition [15]: 96%
inhibition at 10 µM [16]: 97%
inhibition [17]: 99%
inhibition [18]: 98%
Tmax [19]: 5.33 h
inhibition [20]: 100%
inhibition [21]: 99%
inhibition [22]: 96%
Activity [23]: Non-toxic
inhibition [24]: 100%
inhibition [25]: 95%
inhibition [26]: 97%
TGI [27]: Active
inhibition [28]: 99%
remaining at 0.5 h, 1 µM [29]: 23%
inhibition [30]: 100%
inhibition at 10 µM [31]: 72%
half-life [32]: 9.5 h
inhibition [33]: 100%
inhibition [34]: 91%
inhibition [35]: 100%
Activity [36]: Non-toxic
inhibition [37]: 100%
inhibition at 10 µM [38]: 31%
inhibition [39]: 100%
inhibition [40]: 92%
IC50 [41]: 0.7 nM
remaining at 0.5 h, 1 µM [42]: 56%
Cmax [43]: 582 ng/mL
inhibition [44]: 93%
AUC(0-t) [45]: 8750 ng·h/mL
inhibition [46]: 96%
